The subject of data set [1] is vCor.4U cardiomyocytes. Description: Human cardiac troponin I release (AlphaLISA) after oxidative stress. It counts as cell-based. The settings on record: 10 μM compound, up to 200 μM H2O2 or 45 μM menadione. The procedure: (§1) For cell-based dose-response experiments, MAP4K4 inhibitors were prepared in 96-well polypropylene plates as serial dilutions in DMSO of 10 mM stock solutions. To a sterile 96-well intermediate plate, 1 μl of each well was added to 99 μl of medium, the samples were mixed, and 5 μl well^-1 from the intermediate plate were transferred to the cultured cells (final concentration, 0.1% DMSO; final top concentration of inhibitor, 10 μM). Assay plates were gently centrifuged then incubated for 1 hr at 37°C. The death triggers menadione, H2O2 and doxorubicin were prepared fresh on the day of treatment at 10x the final concentrations and 5 μl well^-1 were added as appropriate. Assay plates were gently centrifuged and then incubated at 37°C for the duration of treatment.
Aliquots of medium collected after cells’ treatment with death signals and MAP4K4 inhibitors were incubated at room temperature with AlphaLISA human cardiac troponin I detection reagents (PerkinElmer): sequentially, anti-Troponin I acceptor beads for 1 hr, biotinylated antibody to troponin I for 1hr, and streptavidin (SA)-coated donor beads for 30 min. The AlphaLISA signal was acquired using the Pherastar Plus plate reader. All detection reagents were diluted in 1X AlphaLISA Immunoassay Buffer and a serially diluted analyte standard was used to quantitate the concentration of human cardiac troponin I (pg ml^-1).
Background: Bead proximity is the source of the signal in Alpha formats.

For another data set, the system named is iCell cardiomyocytes. Description: CellTiter-Glo protection from 400 μM H2O2. The following applies: Homo sapiens, Cardiomyocyte, read-out: EC50 in iCell cardiomyocytes (protecting hiPSC-CMs). The class given is cell-based. The procedure:
iCell cardiomyocytes were thawed, transferred to Plating Medium, counted using a Vi-CELL XR cell viability analyzer (Beckman Coulter), and seeded into 24-well plates for RNA collection (60,000 cells well^-1; Greiner) or μClear half-area 96-well plates for gene silencing (10,000 cells well^-1; Greiner). Plates were coated with 10 μg ml^-1 collagen type I (BD Biosciences). Cells were cultured in iCell Cardiomyocytes Plating Medium for 2 d and in Maintenance Medium thereafter. For compound dose-response comparisons, the cells were deposited in Plating Medium at 10,000 cells well^-1 in 0.1% (w/v) gelatin-coated 384-well white Greiner plates and were cultured as above for 8 d before treatment.
For cell-based dose-response experiments, MAP4K4 inhibitors were prepared in 96-well polypropylene plates as serial dilutions in DMSO of 10 mM stock solutions. […]
Assay plates were removed from the incubator, allowed to reach room temperature, inoculated with 20 μl well^-1 CTG reagent (Promega), and gently agitated for 30 min. […] Luminescence due to ATP, proportional to cell number, was captured on a PHERAstar Plus microplate reader (BMG Labtech). […]
(In general: In ATP-based viability assays light output follows the ATP content of the culture.)

In data set [2] the test system is vCor.4U cardiomyocytes. Put plainly: CellTiter-Glo viability after oxidative stress (H2O2 or menadione). The class given is cell-based, human. The following applies: for protection from death signal (CellTiter-Glo): vCor.4U, 10 μM compound, up to 200 μM H2O2 or 45 μM menadione. The procedure:
vCor.4U cardiomyocytes were cultured, except where noted, on white (viability) or black (FLIPR) clear-bottom 384-well plates, treated for 1 hr with […] fibronectin (Sigma-Aldrich). To minimize batch to batch variation, thawed cells first were transferred from cryo-vials into sterile 250 mL flasks containing pre-warmed vCor.4U maintenance medium, for 3-5 d. The cells were then plated at 1000 well^-1 for viability assays or 5000 cells well^-1 for FLIPR experiments, all in 40 μl well^-1 of the maintenance medium. Cells were cultured in Axiogenesis complete medium followed by incomplete medium, were subjected to oxidative stress ± test compounds on day 3, and were assayed on day 4 (Figures 4D and 4E). Alternatively, complete medium was replaced on day 2 of culture with 40 μl of DMEM high Glucose (no FCS or pyruvate), followed by removal and replacement of 20 μl every 2 d for 10 d (Figures 4A–4C).
H2O2, menadione (Sigma-Aldrich), doxorubicin (Calbiochem), and C2-ceramide (N-acetyl-D-sphingosine) were used at the indicated concentrations. MAP4K4 inhibitors were serially diluted in DMSO, transferred to an intermediate plate using assay medium as a diluting agent, and added at a final concentration of 0.1% DMSO. MAP4K4 inhibitors were added to cultured cardiomyocytes 1 hr before the cell death inducers, except where noted, and remained present for the duration of the experiment.
as §1
Assay plates were removed from the incubator, allowed to reach room temperature, inoculated with 20 μl well^-1 CTG reagent (Promega), and gently agitated for 30 min. Prior to adding CTG, 2 μl well^-1 of the culture medium was removed and placed into a white 384-well low volume plate for measurement of cardiac troponin release by AlphaLISA (below). Luminescence due to ATP, proportional to cell number, was captured on a PHERAstar Plus microplate reader (BMG Labtech). Normalized values were plotted against the log concentration of death signal or inhibitor, and a 4-parameter fit was used to identify IC50 and EC50, respectively.

The target in the next data set is T1, hNaV1.5 (Homo sapiens, UniProt Q14524).
T1 construct: stably expressing full length hERG or hNaV1.5; host or cells: Chinese Hamster Ovary cell line
Put plainly: Ion channel safety screening (Patchliner whole-cell patch clamp). The class given is cell-based. The procedure:
(§2) Electrophysiological recordings (Apconix) were performed using a Chinese Hamster Ovary cell line stably expressing full length hERG or hNaV1.5, or HEK293 cells stably expressing full length hCaV1.2. Single cell currents were measured in whole-cell configuration at 21-23°C using a Patchliner (Nanion Technologies). The internal solution for hERG contained (mM): 120 KF, 20 KCl, 10EGTA, 10 HEPES (pH 7.3). The internal solution for hNaV1.5 and CaV1.2 contained (mM): 140 CsF, 1 EGTA, 10 NaCl, 10 HEPES (pH 7.3). […] Late Na^+ currents were activated with 50 μM veratridine. Cells were clamped at a holding potential of −80 mV before a depolarising step appropriate for each channel. Currents measured from the step were referenced to the holding current. Compounds were then incubated for 2-3 min prior to a second measurement using an identical pulse train.
In general terms: In patch-clamp work, channel activity is measured electrically.

Another data set has as its target T2, hERG (Homo sapiens, UniProt Q12809).
T2 construct: stably expressing full length hERG; host or cells: Chinese Hamster Ovary cell line
Described as above. It counts as cell-based. The procedure:
as §2

The target of a further data set is T3, hCaV1.2 (Homo sapiens, UniProt Q13936).
T3 construct: HEK293 cells stably expressing full length hCaV1.2; host or cells: HEK293
T3 sequence (Q13936 whole entry): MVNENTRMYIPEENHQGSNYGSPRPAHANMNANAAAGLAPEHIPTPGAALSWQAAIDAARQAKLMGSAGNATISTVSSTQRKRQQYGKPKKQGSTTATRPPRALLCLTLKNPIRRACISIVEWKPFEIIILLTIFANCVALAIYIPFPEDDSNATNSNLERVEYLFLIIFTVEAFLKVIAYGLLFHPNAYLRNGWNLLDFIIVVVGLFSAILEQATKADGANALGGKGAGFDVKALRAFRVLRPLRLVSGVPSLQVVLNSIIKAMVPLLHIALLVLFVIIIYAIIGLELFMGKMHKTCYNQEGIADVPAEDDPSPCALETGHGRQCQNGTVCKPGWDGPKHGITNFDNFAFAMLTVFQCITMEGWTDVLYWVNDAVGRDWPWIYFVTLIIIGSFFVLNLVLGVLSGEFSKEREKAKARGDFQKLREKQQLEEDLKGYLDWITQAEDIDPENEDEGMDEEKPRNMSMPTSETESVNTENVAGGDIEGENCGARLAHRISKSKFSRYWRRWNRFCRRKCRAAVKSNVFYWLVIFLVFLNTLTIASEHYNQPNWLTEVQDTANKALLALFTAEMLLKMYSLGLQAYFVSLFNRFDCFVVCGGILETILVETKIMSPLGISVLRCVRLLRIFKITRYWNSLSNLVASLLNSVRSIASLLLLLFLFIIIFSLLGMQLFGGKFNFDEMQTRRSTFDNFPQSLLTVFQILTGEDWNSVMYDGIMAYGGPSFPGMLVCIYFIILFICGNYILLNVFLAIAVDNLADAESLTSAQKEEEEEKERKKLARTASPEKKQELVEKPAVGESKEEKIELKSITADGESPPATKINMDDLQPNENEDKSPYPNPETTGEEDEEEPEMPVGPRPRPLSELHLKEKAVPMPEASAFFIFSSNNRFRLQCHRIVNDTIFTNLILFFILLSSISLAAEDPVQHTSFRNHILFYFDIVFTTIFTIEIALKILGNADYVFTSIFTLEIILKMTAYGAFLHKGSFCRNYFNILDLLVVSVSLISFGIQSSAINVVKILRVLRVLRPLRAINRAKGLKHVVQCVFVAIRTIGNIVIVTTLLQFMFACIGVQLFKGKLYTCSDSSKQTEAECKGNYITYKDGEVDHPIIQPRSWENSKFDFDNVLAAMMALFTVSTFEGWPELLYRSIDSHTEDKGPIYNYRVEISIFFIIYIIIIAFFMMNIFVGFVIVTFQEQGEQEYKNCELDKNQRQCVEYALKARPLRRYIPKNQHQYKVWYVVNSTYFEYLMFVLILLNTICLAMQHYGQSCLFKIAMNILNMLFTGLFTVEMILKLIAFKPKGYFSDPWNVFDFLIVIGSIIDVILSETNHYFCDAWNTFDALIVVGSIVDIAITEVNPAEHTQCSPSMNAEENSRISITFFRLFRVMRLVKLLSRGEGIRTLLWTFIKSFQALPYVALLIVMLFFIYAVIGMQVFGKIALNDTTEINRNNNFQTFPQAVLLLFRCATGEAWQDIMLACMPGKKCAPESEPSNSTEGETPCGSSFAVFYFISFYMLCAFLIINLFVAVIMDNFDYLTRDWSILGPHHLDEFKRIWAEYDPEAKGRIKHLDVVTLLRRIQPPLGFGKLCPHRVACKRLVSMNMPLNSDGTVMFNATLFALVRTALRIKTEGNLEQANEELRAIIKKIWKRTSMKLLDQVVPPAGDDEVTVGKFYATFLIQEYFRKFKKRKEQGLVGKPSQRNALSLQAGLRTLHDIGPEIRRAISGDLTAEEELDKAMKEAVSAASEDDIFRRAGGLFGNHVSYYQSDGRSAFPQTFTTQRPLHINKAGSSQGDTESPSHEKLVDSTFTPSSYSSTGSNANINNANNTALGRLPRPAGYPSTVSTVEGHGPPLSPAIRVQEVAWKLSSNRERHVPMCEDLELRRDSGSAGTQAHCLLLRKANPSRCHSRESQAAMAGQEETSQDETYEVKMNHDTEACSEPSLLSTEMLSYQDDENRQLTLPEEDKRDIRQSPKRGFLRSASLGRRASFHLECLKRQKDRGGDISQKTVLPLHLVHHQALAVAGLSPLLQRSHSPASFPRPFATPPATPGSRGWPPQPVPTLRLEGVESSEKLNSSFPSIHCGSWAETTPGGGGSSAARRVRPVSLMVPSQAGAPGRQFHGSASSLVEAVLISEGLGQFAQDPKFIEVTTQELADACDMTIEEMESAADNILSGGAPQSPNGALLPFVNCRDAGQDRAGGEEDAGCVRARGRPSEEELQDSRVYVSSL
T3 sequence (Q08289 whole entry partner): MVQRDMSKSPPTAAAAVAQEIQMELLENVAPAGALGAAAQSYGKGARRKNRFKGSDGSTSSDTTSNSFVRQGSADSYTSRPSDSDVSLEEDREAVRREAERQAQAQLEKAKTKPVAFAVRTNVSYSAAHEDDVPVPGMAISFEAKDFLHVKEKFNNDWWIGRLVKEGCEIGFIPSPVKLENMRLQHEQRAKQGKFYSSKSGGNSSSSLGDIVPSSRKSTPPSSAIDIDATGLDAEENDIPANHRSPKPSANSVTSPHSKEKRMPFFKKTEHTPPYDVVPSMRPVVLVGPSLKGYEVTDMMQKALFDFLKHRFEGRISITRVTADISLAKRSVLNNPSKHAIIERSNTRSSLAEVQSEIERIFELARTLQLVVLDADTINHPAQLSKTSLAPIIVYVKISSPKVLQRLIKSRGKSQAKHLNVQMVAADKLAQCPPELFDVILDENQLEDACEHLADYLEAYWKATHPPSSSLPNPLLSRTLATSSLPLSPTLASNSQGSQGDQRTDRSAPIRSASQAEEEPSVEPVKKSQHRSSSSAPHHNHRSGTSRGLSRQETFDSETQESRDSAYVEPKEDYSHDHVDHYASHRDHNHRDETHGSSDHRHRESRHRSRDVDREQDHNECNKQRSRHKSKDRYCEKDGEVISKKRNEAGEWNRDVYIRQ
T3 sequence (P54289 25-956 partner limits assumed): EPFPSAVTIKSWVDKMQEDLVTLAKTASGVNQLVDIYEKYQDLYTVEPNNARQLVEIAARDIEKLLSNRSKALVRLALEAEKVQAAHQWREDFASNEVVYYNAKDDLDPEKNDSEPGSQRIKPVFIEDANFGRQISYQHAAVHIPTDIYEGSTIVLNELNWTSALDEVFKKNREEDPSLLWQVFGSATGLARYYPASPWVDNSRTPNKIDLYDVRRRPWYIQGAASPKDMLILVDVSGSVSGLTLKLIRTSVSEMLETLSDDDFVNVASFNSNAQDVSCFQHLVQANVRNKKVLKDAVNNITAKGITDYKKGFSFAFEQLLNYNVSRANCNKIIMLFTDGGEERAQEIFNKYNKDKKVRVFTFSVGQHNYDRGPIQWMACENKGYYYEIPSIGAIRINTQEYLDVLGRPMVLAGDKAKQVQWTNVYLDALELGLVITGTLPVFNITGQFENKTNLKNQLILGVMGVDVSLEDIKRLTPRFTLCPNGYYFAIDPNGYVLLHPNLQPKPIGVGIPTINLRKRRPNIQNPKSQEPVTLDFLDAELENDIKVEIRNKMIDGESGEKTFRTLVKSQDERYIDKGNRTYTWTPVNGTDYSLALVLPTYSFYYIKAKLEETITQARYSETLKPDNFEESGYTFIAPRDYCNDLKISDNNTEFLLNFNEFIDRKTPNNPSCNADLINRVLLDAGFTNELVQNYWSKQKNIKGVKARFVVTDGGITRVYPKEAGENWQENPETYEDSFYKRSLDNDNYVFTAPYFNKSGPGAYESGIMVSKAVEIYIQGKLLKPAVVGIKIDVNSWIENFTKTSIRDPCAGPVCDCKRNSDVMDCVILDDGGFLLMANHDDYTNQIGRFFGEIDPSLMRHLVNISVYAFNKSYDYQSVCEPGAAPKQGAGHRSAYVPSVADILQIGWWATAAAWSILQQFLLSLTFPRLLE
T3 sequence (P54289 957-1103 partner limits assumed): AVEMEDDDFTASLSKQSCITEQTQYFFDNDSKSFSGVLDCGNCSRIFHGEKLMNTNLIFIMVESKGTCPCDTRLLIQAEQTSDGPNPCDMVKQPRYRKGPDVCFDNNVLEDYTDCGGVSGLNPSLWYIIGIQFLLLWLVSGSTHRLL
Described as above. The class given is cell-based. The procedure: as §2

Data set [3] is described as follows: Glutathione (GSH)-trapping. The class given is in vitro ADME.
The test system of a further data set is 141 human kinases. Put plainly: Kinase selectivity profiling, Dundee Premier Screen, whole panel. The class given is biochemical. The settings on record: number of kinases; compounds at 1 μM. Here is the method:
Kinase selectivity profiling was performed by the International Centre for Kinase Profiling, MRC Protein Phosphorylation and Ubiquitylation Unit (141 kinases; Premier Screen, http://www.kinase-screen.mrc.ac.uk), using a [γ-^33P]ATP filter binding assay ([Bain et al., 2007]). Compounds were screened at 1 μM. For key hits, pIC50 values were then determined by HTRF as above. More complete kinome profiling was performed by Reaction Biology (376 kinases). Stability in mouse and human liver microsomes was determined by Cyprotex.

Bounds are passed on as bounds.

T2 sequence (Q12809 whole entry): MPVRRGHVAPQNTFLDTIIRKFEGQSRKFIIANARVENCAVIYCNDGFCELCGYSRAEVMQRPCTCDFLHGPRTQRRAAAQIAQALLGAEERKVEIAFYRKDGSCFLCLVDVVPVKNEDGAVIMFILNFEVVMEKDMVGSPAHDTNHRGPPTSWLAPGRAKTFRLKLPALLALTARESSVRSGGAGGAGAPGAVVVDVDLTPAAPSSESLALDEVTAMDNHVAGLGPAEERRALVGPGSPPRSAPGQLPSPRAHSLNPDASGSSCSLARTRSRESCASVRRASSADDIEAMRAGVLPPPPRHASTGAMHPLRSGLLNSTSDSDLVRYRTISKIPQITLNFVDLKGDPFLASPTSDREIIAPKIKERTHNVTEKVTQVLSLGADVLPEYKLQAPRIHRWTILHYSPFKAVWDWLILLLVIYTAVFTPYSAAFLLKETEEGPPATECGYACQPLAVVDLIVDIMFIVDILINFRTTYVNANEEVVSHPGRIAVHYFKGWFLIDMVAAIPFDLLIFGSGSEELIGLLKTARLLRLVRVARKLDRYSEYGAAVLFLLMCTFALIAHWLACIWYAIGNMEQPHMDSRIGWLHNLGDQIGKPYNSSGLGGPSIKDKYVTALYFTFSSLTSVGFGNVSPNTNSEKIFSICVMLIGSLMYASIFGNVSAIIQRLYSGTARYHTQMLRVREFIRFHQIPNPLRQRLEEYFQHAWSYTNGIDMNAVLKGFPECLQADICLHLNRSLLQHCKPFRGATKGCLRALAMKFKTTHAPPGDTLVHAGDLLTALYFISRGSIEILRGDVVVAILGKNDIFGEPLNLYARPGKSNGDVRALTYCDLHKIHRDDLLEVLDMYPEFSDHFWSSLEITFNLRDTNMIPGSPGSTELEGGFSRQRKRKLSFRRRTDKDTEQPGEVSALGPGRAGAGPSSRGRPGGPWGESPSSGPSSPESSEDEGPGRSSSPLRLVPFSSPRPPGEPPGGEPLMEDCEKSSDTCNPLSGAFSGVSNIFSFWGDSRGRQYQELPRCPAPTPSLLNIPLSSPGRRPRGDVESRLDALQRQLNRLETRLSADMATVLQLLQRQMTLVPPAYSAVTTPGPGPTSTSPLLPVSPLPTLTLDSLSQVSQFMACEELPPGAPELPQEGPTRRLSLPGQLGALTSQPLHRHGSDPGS

As for `COCCOc1ccc(-c2cn(-c3ccccc3)c3nc[nH]c(=O)c23)cc1` [DMX-5804, 5-[4-(2-methoxy-ethoxy)-phenyl]-7-phenyl-3,7-dihydro-pyrrolo[2,3-d]pyrimidin-4-one], the “protection from death signal (human cardiac troponin release)” value in the data set with vCor.4U cardiomyocytes [1] is “substantiated”. In the data set on iCell cardiomyocytes, the EC50 was 0.5 µM. In addition, the “protection if given 1 h after oxidative stress” value with vCor.4U cardiomyocytes [2] (400 μM H2O2, CellTiter-Glo) is listed as “partial protection”. Further, the “protection from death signal (CellTiter-Glo)” value in the data set on vCor.4U cardiomyocytes [2] was “substantiated”. The off-target effect entry on hNaV1.5 (cloned human hNaV1.5), at hERG (cloned human hERG) and at hCaV1.2 (cloned human hCaV1.2) was “no off-target effect” throughout. Besides, the IC50 is > 30 µM at hNaV1.5 (hNaV1.5, CHO cells, 4-parameter logistic fit); > 30 µM on hERG (hERG, CHO cells, 4-parameter logistic fit); > 30 µM against hCaV1.2 (hCaV1.2, HEK cells, 4-parameter logistic fit). Besides, in data set [3], the “glutathione (GSH)-trapping” value was “no off-target effect”.

Turning to `Oc1ncnc2c1c(-c1ccccc1)cn2-c1ccccc1` [F1386-0303, 5,7-diphenyl-7H-pyrrolo[2,3-d]pyrimidin-4-ol], the “protection from death signal (human cardiac troponin release)” value in the data set on vCor.4U cardiomyocytes [1] is “virtually complete”. In addition, the EC50 in the data set on iCell cardiomyocytes stood at 5 µM. In the data set on vCor.4U cardiomyocytes [2], the “protection from death signal (CellTiter-Glo)” value is “virtually complete”. Further, the “off-target effects among 141 human kinases” value with 141 human kinases is recorded as 5.

As usually defined, the EC50 is the concentration at which the effect is half-maximal. As a reminder, the IC50 is the midpoint of a concentration-inhibition curve. A higher IC50 goes with weaker potency.
